Data as given in ChEMBL document CHEMBL1201862, “PubChem BioAssay data set” (2004).
Active and inactive are the calls of the source.

Key:
[1] = biological target: Histone-lysine N-methyltransferase NSD2 (Homo sapiens, UniProt O96028); assay type: biochemical
[2] = biological target: T1, Carboxy-terminal domain RNA polymerase II polypeptide A small phosphatase 1 (Homo sapiens, UniProt Q9GZU7); experiment: CTDSP1 inhibitors, concentration-response, biochemical, absorbance readout, ultra-high-throughput screen actives (AID 540297); assay type: functional
T1 sequence (Q9GZU7 whole entry): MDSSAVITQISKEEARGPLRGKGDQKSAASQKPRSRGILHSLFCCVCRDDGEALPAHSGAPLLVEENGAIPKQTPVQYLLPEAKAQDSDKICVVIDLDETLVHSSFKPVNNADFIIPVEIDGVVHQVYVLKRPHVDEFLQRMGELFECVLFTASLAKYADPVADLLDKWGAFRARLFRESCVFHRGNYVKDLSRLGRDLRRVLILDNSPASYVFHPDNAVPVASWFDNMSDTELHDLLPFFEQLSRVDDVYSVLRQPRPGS

[3] = biological target: T2, Aminopeptidase N (Plasmodium falciparum FcB1/Columbia, UniProt O96935); experiment: malaria alanyl aminopeptidase activity blockers – biochemical, fluorogenic H-Leu-NHMec substrate, 1536-well (AID 1445); design: species or system Plasmodium falciparum 3D7, 3D7
T2 sequence (O96935 whole entry): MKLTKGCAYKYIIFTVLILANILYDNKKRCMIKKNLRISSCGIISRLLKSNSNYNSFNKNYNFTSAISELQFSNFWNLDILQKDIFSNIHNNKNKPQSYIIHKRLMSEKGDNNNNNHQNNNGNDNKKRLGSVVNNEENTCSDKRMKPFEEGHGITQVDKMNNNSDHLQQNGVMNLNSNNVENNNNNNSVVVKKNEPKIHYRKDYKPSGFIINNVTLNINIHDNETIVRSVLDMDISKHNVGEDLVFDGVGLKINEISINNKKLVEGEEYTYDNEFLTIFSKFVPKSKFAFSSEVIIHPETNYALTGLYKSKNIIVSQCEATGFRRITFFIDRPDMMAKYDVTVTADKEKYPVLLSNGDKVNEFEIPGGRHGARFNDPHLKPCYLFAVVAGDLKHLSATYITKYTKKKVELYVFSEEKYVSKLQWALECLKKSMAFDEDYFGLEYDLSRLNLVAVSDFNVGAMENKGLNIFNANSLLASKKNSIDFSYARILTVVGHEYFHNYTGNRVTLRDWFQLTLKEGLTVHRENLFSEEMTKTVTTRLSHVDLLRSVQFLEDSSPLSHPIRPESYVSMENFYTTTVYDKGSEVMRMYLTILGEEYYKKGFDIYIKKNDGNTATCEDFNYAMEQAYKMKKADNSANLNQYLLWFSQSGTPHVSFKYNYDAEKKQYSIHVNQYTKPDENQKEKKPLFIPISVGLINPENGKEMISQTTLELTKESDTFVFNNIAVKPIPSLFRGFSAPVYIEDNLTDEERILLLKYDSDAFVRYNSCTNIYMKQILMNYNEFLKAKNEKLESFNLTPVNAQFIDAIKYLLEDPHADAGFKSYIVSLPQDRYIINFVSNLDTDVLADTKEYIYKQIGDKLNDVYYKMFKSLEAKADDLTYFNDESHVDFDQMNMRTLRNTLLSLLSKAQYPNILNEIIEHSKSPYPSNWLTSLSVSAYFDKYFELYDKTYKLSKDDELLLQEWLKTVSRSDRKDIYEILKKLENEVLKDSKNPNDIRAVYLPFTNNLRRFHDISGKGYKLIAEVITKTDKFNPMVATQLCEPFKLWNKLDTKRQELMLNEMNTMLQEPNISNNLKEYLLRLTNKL

[4] = biological target: Beta-galactosidase (Escherichia coli, UniProt Q8VNN2); experiment: Dose response counterscreen for EBI2 assay utilizing the enzyme, b-galactosidase.; assay type: functional
Beta-galactosidase, sequence (Q8VNN2 whole entry, the tested form may be a part): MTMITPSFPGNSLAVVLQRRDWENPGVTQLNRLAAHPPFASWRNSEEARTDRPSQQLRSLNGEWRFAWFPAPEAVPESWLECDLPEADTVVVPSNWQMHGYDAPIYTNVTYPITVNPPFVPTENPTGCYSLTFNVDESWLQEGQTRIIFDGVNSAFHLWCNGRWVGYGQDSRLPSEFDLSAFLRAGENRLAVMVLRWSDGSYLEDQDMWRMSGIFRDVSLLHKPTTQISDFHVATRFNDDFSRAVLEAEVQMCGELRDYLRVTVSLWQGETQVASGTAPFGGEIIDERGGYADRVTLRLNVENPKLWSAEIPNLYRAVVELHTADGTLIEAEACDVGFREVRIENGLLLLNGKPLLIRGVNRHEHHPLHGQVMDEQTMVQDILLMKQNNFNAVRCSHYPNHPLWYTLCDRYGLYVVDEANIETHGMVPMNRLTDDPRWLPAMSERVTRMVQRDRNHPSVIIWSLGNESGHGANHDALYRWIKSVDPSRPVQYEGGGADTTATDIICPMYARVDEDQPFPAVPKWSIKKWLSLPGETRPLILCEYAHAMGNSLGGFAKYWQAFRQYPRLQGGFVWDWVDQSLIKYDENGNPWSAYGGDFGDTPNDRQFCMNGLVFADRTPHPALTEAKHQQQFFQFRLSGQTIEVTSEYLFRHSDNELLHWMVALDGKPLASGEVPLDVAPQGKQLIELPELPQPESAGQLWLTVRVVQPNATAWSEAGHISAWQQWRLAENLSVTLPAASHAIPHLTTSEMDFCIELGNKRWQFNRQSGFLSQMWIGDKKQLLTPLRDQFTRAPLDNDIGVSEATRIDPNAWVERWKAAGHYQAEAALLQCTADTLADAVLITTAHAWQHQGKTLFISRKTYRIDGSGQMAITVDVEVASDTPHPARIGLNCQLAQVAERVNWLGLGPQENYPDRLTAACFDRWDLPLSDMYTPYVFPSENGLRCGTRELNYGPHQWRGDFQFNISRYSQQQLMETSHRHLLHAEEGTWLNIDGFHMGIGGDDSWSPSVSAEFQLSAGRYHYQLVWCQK

[5] = biological target: T3, Sentrin-specific protease 1 (Homo sapiens, UniProt Q9P0U3); experiment: SENP1 catalytic domain blockers, concentration series – biochemical, kinetic FRET, dose response (AID 651697); assay type: functional; conditions: read-out: IC50_Mean
T3 sequence (Q9P0U3 whole entry): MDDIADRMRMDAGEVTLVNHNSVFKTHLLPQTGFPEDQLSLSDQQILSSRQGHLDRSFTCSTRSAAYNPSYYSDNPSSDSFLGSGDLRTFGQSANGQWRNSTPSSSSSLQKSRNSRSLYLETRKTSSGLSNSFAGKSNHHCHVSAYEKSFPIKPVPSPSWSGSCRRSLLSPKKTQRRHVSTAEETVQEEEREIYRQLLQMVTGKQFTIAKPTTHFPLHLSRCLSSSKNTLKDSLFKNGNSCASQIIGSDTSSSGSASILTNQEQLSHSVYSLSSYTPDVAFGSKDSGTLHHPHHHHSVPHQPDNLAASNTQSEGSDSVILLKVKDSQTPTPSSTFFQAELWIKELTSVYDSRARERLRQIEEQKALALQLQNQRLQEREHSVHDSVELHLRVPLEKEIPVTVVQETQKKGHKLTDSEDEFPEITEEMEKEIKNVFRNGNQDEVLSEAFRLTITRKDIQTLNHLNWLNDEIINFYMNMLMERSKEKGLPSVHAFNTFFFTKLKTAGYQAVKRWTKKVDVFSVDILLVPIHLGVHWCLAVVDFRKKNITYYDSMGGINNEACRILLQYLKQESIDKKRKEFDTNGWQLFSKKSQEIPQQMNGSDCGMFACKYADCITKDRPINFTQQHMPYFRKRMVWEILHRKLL

[6] = biological target: T4, Insulin-degrading enzyme (Homo sapiens, UniProt P14735); experiment: Dose Response: Fluorescence polarization-based cell-based high throughput dose response assay for inhibitors of insulin-degrading enzyme (IDE). [Related pubchem assays: 434962 (Primary screen (IDE inhibitors in singlicate)), 449730 (Counterscreen (Cytotoxicity in triplicate)), 435028 (Confirmation (IDE inhibitors in triplicate)), 434984 (Summary …; assay type: functional
T4 sequence (P14735 whole entry): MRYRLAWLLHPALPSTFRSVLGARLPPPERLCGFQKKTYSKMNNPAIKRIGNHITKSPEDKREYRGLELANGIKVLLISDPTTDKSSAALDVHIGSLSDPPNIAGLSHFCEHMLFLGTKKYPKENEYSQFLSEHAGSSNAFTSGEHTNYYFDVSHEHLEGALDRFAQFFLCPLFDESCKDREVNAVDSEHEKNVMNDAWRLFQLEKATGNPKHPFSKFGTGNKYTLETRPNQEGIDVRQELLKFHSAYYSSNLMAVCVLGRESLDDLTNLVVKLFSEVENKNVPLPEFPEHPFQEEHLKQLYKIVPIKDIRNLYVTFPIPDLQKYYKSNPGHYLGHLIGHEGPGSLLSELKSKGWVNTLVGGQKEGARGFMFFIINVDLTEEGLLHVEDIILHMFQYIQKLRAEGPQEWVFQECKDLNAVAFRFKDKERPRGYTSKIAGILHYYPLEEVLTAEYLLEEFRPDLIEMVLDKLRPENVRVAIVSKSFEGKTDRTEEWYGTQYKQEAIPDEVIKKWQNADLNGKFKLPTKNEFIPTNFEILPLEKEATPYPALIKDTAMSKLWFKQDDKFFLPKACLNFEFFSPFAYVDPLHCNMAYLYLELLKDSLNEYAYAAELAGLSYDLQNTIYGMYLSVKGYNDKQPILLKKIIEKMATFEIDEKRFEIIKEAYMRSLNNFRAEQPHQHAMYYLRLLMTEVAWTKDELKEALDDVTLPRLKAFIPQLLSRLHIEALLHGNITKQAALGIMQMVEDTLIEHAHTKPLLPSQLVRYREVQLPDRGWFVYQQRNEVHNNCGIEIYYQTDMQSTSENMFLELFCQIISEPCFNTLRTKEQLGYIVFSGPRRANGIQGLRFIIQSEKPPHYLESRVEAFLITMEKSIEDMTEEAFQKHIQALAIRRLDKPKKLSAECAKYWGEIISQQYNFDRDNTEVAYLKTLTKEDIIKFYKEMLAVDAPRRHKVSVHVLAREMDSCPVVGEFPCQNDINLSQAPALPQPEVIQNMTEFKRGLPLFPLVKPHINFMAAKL

[7] = biological target: T3, Sentrin-specific protease 1; experiment: Dose response confirmation of small molecule inhibitors of the catalytic domain of the SUMO protease, SENP1 in a FRET assay.; assay type: functional; conditions: read-out: IC50_Mean
[8] = Counterscreen for IDE inhibitors: Luminescence-based cell-based high throughput dose response assay to identify compounds that are cytotoxic to HEK cells. [Related pubchem assays: 434962 (Primary screen (IDE inhibitors in singlicate)), 449730 (Counterscreen (Cytotoxicity in triplicate)), 435028 (Confirmation (IDE inhibitors in triplicate)) …; assay type: functional; conditions: HEK293

Histone-lysine N-methyltransferase NSD2, sequence (O96028 whole entry, the tested form may be a part): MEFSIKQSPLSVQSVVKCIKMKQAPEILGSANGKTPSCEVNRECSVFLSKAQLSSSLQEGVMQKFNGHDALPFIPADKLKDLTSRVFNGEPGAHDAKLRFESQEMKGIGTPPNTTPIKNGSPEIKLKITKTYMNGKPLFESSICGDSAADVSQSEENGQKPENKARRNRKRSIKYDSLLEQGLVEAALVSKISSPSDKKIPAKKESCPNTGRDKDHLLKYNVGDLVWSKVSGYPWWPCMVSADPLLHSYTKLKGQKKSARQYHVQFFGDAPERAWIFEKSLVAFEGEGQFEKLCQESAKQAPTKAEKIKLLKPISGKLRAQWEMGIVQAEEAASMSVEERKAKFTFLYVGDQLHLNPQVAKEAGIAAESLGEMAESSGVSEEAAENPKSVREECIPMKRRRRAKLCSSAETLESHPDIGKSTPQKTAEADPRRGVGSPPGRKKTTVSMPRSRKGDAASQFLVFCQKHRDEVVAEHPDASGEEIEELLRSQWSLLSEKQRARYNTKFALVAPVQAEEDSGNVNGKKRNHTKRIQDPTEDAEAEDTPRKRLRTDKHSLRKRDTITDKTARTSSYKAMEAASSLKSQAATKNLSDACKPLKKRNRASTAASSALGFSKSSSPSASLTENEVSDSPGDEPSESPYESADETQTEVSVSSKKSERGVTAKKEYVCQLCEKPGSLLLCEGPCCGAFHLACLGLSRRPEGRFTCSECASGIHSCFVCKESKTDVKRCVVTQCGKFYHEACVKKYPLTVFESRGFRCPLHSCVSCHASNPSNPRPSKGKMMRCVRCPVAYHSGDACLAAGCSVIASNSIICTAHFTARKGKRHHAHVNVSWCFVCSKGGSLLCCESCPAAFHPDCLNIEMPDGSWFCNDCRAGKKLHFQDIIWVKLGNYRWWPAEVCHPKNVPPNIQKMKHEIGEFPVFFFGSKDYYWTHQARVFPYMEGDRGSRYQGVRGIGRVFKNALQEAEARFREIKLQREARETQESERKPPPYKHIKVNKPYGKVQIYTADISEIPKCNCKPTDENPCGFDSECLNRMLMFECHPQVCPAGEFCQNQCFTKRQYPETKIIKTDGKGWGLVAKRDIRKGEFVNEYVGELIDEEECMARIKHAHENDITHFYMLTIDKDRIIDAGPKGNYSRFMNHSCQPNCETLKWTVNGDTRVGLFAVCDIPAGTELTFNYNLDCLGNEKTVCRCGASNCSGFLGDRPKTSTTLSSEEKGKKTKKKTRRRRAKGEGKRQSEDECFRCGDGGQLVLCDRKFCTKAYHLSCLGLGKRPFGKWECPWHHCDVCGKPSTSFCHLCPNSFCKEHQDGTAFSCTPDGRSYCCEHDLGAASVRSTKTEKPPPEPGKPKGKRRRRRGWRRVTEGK

## Cc1ccc(S(=O)(=O)NC2=NC(=O)/C(=C/c3ccc(Br)o3)S2)cc1
[1]
  AC50: 14.1 µM (active)
[2]
  IC50: 7.47 µM (active)
[3]
  IC50: 42.1 µM (active)

## COc1ccc(OCC(=O)N2CCN(c3nnc(-c4ccc(C)cc4)c4ccccc34)CC2)cc1
[4]
  IC50: > 80 µM (inactive)

## O=C(/C=C/c1ccc(F)cc1)N1CCN(c2ncccn2)CC1
[4]
  IC50: > 80 µM (inactive)

## CCOc1cc(Br)cc(/C=C2\SC(Nc3ccccc3)=NC2=O)c1O
[5]
  IC50: 5.76 µM (active)
[6]
  IC50: 12.7 µM (not active)
[7]
  IC50: 1.18 µM (active)
[8]
  IC50: 35.1 µM (not active)
